In US5124327A, “HIV reverse transcriptase” (Merck & Co., Inc., priority 1991, dated 1992):

What was measured:
[1] = system: HIV-1 strain IIIb; assay: Inhibition of virus spread in HIV-infected MT-4 cells (p24 antigen); assay type: cell-based; conditions: Human immunodeficiency virus 1, IIIB, MT4, 72 h, concentration giving greater than 95% reduction in p24 antigen production relative to untreated controls, 3 days incubation, read-out: cell culture inhibitory concentration (CIC95)
Method: MT cells were infected at Day O at a concentration of 250,000 per ml with a 1:2000 dilution of HIV-1 strain IIIb stock (final 125 pg p24/ml; sufficient to yield ≤1% infected cells on day 1 and 25-100% on day 4). Cells were infected and grown in the following medium: RPMI 1640 (Whittaker BioProducts), 10% inactivated fetal bovine serum, 4 mM glutamine (Gibco Labs) and 1:100 Penicillin-Streptomycin (Gibco Labs).
The mixture was incubated overnight at 37° C. in 5% CO2 atmosphere.
Serial two-fold dilutions of compound were prepared in cell culture medium. At Day 1, aliquots of 125 μl of compound were added to equal volumes of HIV-infected MT-4 cells (50,000 per well) in a 96-well microtiter cell culture plate. Incubation was continued for 3 days at 37° C. in 5% CO2 atmosphere.
Using a multichannel pipettor, the settled cells were resuspended and a 125 μl harvested into a separate microtiter plate. […]
The concentration of HIV p24 antigen was measured by an enzyme immunoassay,described as follows. Aliquots of p24 antigen to be measured were added to microwells coated with a monoclonal antibody specific for HIV core antigen. […]
The cell culture inhibitory concentration (ClC95) for each compound is defined as that concentration which inhibited by greater than 95% the spread of infection, as assessed by a greater than 95% reduction in p24 antigen production relative to untreated controls.

[2] = molecular target: T1, recombinant HIV reverse transcriptase (HIV RTR) (Human immunodeficiency virus type 1 group M subtype B, UniProt P04585); assay: Reverse transcriptase assay: incorporation of tritiated dGMP into acid-precipitable cDNA; assay type: biochemical
T1 construct: recombinant HIV reverse transcriptase (HIV RTR)
Method: The assay measures the incorporation of tritiated deoxyguanosine monophosphate by recombinant HIV reverse transcriptase (HIV RTR) (or other RT) into acid-precipitable cDNA at the Km values of dGTP and poly r(C).oligo d(G)12-18.
Thirty uL of a reaction mixture containing equal volumes of: 500 mM Tris.HCl (pH 8.2), 300 mM MgCl2, 1200 mM KCl, 10 mM DTT, 400 μg/mL poly r(c).oligo d(G) [prepared by dissolving 1.5 mg (25 U) poly r(C).oligo d(G) in 1.5 ml sterile distilled H2 O and diluting to 400 μg/ml], 0.1 μCi/μl [^3 H] dGTP, 160 μM dGTP, was added to 10 μl sterile distilled H2 O, 2.5 μl of potential inhibitor and 10 μL of 5 nM purified HIV RTR in tubes. The mixture was incubated at 37° C. for 45 minutes.
After incubation is complete, the tubes were cooled in ice for 5 minutes. Ice-cold 13% TCA containing 10 mM NaPPi (200 μl) are added and the mixture incubated on ice for 30 minutes. The precipitated cDNA is removed by filtration using presoaked glass filters [TCA, NaPPi ]. The precipitate is then washed with 1N HCl, 10 mM NaPPi. The filter discs are then counted in a scintillation counter.
Under these conditions [dGTP] and poly r(C).oligo d(G)12-18 each are approximately equal to the appropriate Km value. Approximately 5-6,000 cpm of [^3 H] GMP are incorporated into acid-precipitable material. The RT reaction is concentration- and time-dependent. […]

## [O-][S+](Cc1[nH]c2ccccc2c1Sc1ccccc1)c1ccccc1 (stereo not drawn) [compound A, 2-Phenylsulfinylmethyl-3-phenylthioindole]
[1]
  IC95: ~100 nM
[2]; [dGTP] and poly r(C).oligo d(G)12-18 at approximately Km, 37° C., 45 minutes, read-out: calculated IC50
  IC50: ~60 nM
[2]; at the Km values of dGTP and poly r(C).oligo d(G)12-18
  incorporation of tritiated deoxyguanosine monophosphate into acid-precipitable cDNA: inhibits this incorporation
